Values of other authors, collected in patent US20070134724A1, “Phosphorylation of tau by abl” (priority 2005, published 2007).
Counter-ions that a name gives are not always drawn. Like-named read-outs stand apart in the source and are kept apart here.

How the values were obtained:
[1] = tested on: Aβ; settings: guinea pig brains
[2] = tested on: Aβ; settings: neurons

Which “production of Aβ” value [1] does the source give for `Cc1ccc(NC(=O)c2ccc(CN3CCN(C)CC3)cc2)cc1Nc1nccc(-c2cccnc2)n1` [Gleevec, imatinib mesylate] here?
Its value is “inhibits”.

And the “production of Aβ” value [2]?
The value was “inhibits”.
